Laboratory results reported in ChEMBL document CHEMBL1126234, “Rigid analogs of acetylcholine can be m1-selective agonists: implications for a rational treatment strategy in Alzheimer's disease” (Bioorg Med Chem Lett, 1992).
Substitutions are numbered along the chain they refer to.

Columns and labels:
Assay type in all cases: functional, cell-based
[1] = target: T1, Muscarinic acetylcholine receptor M1 (Homo sapiens) (UniProt P11229); assay: Percent increase in intracellular calcium ions concentration ([Ca2+]i) using CHO cells, stably transfected with human muscarinic m1 acetylcholine receptor (AChR)
T1 sequence (whole entry): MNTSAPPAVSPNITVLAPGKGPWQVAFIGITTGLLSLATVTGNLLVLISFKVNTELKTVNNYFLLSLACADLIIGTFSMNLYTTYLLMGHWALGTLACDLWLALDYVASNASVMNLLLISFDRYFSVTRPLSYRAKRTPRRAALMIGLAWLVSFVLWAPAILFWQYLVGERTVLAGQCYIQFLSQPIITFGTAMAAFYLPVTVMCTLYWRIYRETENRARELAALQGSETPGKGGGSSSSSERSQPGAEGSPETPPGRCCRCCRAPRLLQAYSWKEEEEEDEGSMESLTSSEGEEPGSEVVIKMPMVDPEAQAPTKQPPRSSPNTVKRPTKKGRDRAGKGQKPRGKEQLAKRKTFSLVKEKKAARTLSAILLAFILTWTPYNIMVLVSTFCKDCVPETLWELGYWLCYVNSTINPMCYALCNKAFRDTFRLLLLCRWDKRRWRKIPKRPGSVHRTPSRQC

[2] = target: T1, Muscarinic acetylcholine receptor M1 (Homo sapiens); assay: Percent increase in phosphoinositides (PI) hydrolysis using chinese hamster ovary (CHO) cells, stably transfected with human muscarinic m1 acetylcholine receptor (AChR)
[3] = target: Muscarinic acetylcholine receptor M3 (Homo sapiens) (UniProt P20309); assay: Percent increase in intracellular calcium ion concentration ([Ca2+]i) using CHO cells, stably transfected with human muscarinic m3 acetylcholine receptor (AChR)
Muscarinic acetylcholine receptor M3 (Homo sapiens), sequence (P20309 whole entry, looked up): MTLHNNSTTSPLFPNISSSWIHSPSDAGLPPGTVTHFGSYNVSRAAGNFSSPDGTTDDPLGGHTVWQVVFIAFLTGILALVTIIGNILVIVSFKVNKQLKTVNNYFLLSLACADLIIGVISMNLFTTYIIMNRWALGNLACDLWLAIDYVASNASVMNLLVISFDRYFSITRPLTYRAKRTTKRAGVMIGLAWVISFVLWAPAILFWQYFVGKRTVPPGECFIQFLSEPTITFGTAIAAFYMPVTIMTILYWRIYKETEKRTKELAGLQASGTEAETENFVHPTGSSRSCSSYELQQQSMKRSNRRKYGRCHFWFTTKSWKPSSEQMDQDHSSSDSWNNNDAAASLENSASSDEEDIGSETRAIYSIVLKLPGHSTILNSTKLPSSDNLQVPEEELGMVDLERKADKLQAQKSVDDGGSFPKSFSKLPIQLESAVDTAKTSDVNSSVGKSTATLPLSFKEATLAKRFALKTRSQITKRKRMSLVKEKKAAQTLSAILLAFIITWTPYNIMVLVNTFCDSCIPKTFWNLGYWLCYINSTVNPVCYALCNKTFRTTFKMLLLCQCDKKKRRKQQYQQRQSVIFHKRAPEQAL

[4] = target: Muscarinic acetylcholine receptor M3 (Rattus norvegicus) (UniProt P08483); assay: Percent increase in Arachidonic acid (AA) release using CHO cells, stably transfected with rat muscarinic m3 acetylcholine receptor (AChR)
Muscarinic acetylcholine receptor M3 (Rattus norvegicus), sequence (P08483 whole entry, looked up): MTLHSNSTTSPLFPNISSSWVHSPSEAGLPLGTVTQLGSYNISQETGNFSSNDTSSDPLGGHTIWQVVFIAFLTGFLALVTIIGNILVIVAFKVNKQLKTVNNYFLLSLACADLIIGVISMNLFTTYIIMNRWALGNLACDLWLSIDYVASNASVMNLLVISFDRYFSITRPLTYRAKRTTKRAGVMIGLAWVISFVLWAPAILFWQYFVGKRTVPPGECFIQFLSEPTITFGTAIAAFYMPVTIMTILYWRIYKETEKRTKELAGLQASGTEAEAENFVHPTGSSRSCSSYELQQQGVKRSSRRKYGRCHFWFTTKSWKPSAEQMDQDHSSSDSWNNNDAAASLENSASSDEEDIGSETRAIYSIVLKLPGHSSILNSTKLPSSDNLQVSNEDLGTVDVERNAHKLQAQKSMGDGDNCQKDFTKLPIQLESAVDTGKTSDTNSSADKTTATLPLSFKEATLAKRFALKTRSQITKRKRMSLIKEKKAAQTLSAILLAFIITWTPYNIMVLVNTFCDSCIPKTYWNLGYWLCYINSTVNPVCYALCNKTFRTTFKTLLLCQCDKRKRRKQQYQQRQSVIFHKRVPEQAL

[5] = target: T1, Muscarinic acetylcholine receptor M1 (Homo sapiens); assay: Percent increase in Arachidonic acid (AA) release using CHO cells, transfected with human muscarinic m1 acetylcholine receptor (AChR)
[6] = target: T2, Muscarinic acetylcholine receptor M1 (Rattus norvegicus) (UniProt P08482); assay: Percent increase in Arachidonic acid (AA) release using CHO cells, transfected with rat muscarinic m1 acetylcholine receptor (AChR)
T2 sequence (whole entry): T1 sequence (whole entry) with A5V, T254S, P309S, R320K, A337G, I413V

[7] = target: Muscarinic acetylcholine receptor M3 (Homo sapiens) (UniProt P20309); assay: Percent increase in phosphoinositides (PI) hydrolysis using CHO cells, stably transfected with human muscarinic m3 acetylcholine receptor (AChR)
[8] = target: T3, Muscarinic acetylcholine receptor M5 (Homo sapiens) (UniProt P08912); assay: Percent increase in intracellular calcium ions concentration ([Ca2+]i) using CHO cells, stably transfected with human muscarinic m5 acetylcholine receptor (AChR)
T3 sequence (whole entry): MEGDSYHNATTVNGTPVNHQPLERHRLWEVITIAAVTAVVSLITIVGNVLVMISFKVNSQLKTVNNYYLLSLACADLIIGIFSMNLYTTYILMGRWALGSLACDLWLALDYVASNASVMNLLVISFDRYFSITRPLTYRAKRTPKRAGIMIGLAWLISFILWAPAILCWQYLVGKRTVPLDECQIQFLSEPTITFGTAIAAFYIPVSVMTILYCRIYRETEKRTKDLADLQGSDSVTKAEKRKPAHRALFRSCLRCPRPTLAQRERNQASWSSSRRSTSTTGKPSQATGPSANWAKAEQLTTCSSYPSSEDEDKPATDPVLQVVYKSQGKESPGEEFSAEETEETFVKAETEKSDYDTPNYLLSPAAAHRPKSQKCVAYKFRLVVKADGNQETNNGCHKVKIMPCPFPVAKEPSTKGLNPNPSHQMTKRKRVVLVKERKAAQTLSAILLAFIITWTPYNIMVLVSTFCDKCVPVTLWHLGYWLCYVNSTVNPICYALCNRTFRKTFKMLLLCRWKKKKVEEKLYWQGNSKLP

[9] = target: T4, Muscarinic acetylcholine receptor M4 (Homo sapiens) (UniProt P08173); assay: Percent increase in intracellular calcium ion concentration ([Ca2+]i) using CHO cells, stably transfected with human muscarinic m4 acetylcholine receptor (AChR)
T4 sequence (whole entry): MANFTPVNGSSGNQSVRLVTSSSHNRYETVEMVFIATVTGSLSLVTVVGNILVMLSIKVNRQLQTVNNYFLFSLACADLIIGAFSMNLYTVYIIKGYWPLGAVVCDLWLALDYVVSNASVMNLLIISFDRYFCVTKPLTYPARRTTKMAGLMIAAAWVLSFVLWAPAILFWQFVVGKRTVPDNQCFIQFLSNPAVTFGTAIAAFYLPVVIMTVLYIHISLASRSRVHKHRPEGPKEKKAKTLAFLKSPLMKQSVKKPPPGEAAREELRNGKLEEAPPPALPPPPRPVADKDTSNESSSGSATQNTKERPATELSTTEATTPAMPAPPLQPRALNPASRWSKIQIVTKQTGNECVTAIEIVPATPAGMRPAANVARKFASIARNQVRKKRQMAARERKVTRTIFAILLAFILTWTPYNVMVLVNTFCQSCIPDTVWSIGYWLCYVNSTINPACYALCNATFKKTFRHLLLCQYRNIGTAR

[10] = target: T3, Muscarinic acetylcholine receptor M5 (Homo sapiens); assay: Percent increase in phosphoinositides (PI) hydrolysis using CHO cells, stably transfected with human muscarinic m5 acetylcholine receptor (AChR)
[11] = target: T5, Muscarinic acetylcholine receptor M2 (Homo sapiens) (UniProt P08172); assay: Percent increase in intracellular calcium ions concentration ([Ca2+]i) using CHO cells, stably transfected with human muscarinic m2 acetylcholine receptor (AChR)
T5 sequence (whole entry): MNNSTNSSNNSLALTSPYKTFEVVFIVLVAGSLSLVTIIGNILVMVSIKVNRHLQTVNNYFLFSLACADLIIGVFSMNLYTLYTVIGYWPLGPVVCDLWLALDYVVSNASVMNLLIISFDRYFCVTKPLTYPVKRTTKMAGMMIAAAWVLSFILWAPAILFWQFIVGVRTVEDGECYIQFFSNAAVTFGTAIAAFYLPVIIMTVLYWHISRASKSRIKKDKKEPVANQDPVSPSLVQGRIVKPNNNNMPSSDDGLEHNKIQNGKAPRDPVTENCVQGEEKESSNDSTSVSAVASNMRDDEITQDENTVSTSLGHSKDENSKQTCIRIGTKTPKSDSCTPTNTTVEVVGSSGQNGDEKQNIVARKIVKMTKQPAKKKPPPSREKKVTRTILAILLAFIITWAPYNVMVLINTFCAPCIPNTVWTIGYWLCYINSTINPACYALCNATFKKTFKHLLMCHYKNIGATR

[12] = target: Muscarinic acetylcholine receptor M3 (Homo sapiens) (UniProt P20309); assay: Percent increase in forskolin-stimulated cAMP accumulation using CHO cells, stably transfected with human muscarinic m3 acetylcholine receptor (AChR)
[13] = target: T5, Muscarinic acetylcholine receptor M2 (Homo sapiens); assay: Percent increase in forskolin-stimulated cAMP accumulation using CHO cells, transfected with human muscarinic m2 acetylcholine receptor (AChR)
[14] = target: Muscarinic acetylcholine receptor M3 (Homo sapiens) (UniProt P20309); assay: Percent increase in Arachidonic acid (AA) release using CHO cells, stably transfected with human muscarinic m3 acetylcholine receptor (AChR)
[15] = target: T3, Muscarinic acetylcholine receptor M5 (Homo sapiens); assay: Percent increase in Arachidonic acid (AA) release using CHO cells, stably transfected with human muscarinic m5 acetylcholine receptor (AChR)
[16] = target: T1, Muscarinic acetylcholine receptor M1 (Homo sapiens); assay: Percent increase in forskolin-stimulated cAMP accumulation using CHO cells, stably transfected with human muscarinic m1 acetylcholine receptor (AChR)

## CC1=NC2(CCN(C)CC2)CO1
[1]
  Increase: 85%
[2]
  Increase: 102%
[3]
  Increase: 132%
[4]
  Increase: 36%
[5]
  Increase: 3%
[6]
  Increase: 61%
[7]
  Increase: 84%
[8]
  Increase: 80%
[9]
  Increase: 10%
[10]
  Increase: 79%
[11]
  Increase: 9%
[12]
  Increase: 4%
[13]
  Increase: 70%

## C[C@@H]1OC2(CS1)CN1CCC2CC1 (some centres undefined)
[1]
  Increase: 79%
[2]
  Increase: 43%
[3]
  Increase: 86%
[5]
  Increase: 68%
[14]
  Increase: 11%
[15]
  Increase: 4%
[7]
  Increase: 10%
[8]
  Increase: 32%
[9]
  Increase: 3%
[16]
  Increase: 1%
[10]
  Increase: 4%
[11]
  Increase: 17%
[12]
  Increase: 0.8%
[13]
  Increase: 60%

## C[N+](C)(C)CC#CCOC(=O)Nc1cccc(Cl)c1
[2]
  Increase: 89%
[5]
  Increase: 90%
[14]
  Increase: 13%
[15]
  Increase: 34%
[7]
  Increase: 7%
[16]
  Increase: 7%
[10]
  Increase: 24%
[12]
  Increase: 7%
[13]
  Increase: 9.5%

## CC1=NCC2(CCN(C)CC2)O1
[1]
  Increase: 60%
[2]
  Increase: 85%
[3]
  Increase: 130%
[4]
  Increase: 27%
[6]
  Increase: 90%
[7]
  Increase: 76%
[8]
  Increase: 78%
[9]
  Increase: 10%
[16]
  Increase: 6%
[10]
  Increase: 28%
[11]
  Increase: 12%
[12]
  Increase: 10%
[13]
  Increase: 74%
